Measurements taken from paper PMC11274883, “Anticancer Effect of Pt^[sequence], Pt^II5MESS, Pt^II56MESS and Their Platinum(IV)-Dihydroxy Derivatives against Triple-Negative Breast Cancer and Cisplatin-Resistant Colorectal Cancer” (Cancers, 2024).

Assays:
MDA−MB−231 cells = test: Label-free quantitative proteomics; format: cell-based, Homo Sapiens; conditions: MDA−MB−231, IC50, 72 h; for number of downregulated differentially expressed proteins / number of upregulated differentially expressed proteins: p < 0.05, fold change > 2
Experimental: (§1) The supernatant was then collected into 15 mL tubes, then the cells were washed with PBS and trypsinised. The detached cells were transferred to allocated tubes and centrifuged at 500× g for 5 min at 4 °C. Cell pellet was washed twice with PBS and then resuspended in 300 µL cell lysis buffer (RIPA) for 30 min on ice. Cell extracts were then centrifuged at 12,000× g for 15 min at 4 °C, and the supernatants (containing the proteins) were collected into Lo-Bind Eppendorf. The Bio-Rad protein assay (Bio-Rad, Hercules, CA, USA) was used to assess protein content. For protein extraction and delipidation 100 µL of the cell homogenate was moved to 1.7 mL Lo-Bind Eppendorf tubes and 450 µL methanol was added to the mixture and vortexed. Chloroform (150 µL) was next added and vortexed. Then, water (450 µL) was added to the mixture, vortexed and centrifuged for 5 min at 12,000× g, which formed the protein pellet at the organic/aqueous interface. The layer of chloroform was removed and then 400 µL of methanol was added. The sample was then vortexed and centrifuged at 12,000× g for 15 min. The supernatant was then aspirated and discarded. The pellet was then washed with methanol (400 µL). The supernatant was removed, and the pellets were air-dried overnight. Next, steps were performed for reduction, alkylation, and tryptic digestion of the protein. 0.1% RapiGest (Waters, Milford, MA, USA) in 50 mM aqueous ammonium bicarbonate (20 µL) was added to the air-dried pellet and vortexed for effective suspension. The pellet should completely dissolve. Then, 50 µL of 7 mM DTT in 50 mM aqueous ammonium bicarbonate was added, to give a final concentration of 5 mM DTT. Samples were then heated for 30 min at 60 °C and cooled to room temperature. Iodoacetamide (45 mM) in 50 mM aqueous ammonium bicarbonate was next added to give a concentration of 15 mM. The mixture was allowed to react in the dark for 30 min. Then, 10 ng/µL of Trypsin Gold, Mass spectrometry grade (Promega, NSW, Australia) was added for digestion to occur at room temperature overnight. And 50 µL of 4% (v/v) aqueous trifluoroacetic acid was then added to each tube. Samples were next heated for 45 min at 37 °C to effect decomposition of RapiGest. Samples were then centrifuged at 12,000× g for 10 min at 4 °C. Supernatants were then transferred to total recovery vials and run on a nanoAcquity Ultra-Performance Liquid Chromatography (UPLC) coupled with a Synapt G2-Si instrument (Waters, MA, USA) was used for label-free quantitative protein profiling. Nano-proteomics method is detailed in Method S1. Three independent experiments in triplicates were implemented, while all samples were analysed in a single run with a single injection (1 µL) for each trial. Mass spectrometry (MS) data were processed using Progenesis QI for proteomics (version 4.1, Nonlinear Dynamics, Newcastle upon Tyne, UK), and aligned using UniProt Homo Sapiens reference database IDEP9.6 utilised to cluster and retrieve the initial signature analyses. […] Enrichment studies were performed using gene lists that corresponded to the identified proteins. Overrepresentation analysis was performed based on Gene Ontology (GO) Biological Processes, GO Cellular Components, and GO Molecular Functions using iDEP. Enrichment maps and STRING apps were used to construct pathways networks and explore protein–protein interactions.

HT29 cells = test: Label-free quantitative proteomics; format: cell-based, Homo Sapiens; conditions: HT29, IC50, 72 h; for number of downregulated differentially expressed proteins / number of upregulated differentially expressed proteins: p < 0.05, fold change > 2
Experimental: as §1

MCF10A = test: WST-1 cytotoxicity, 72 h; format: cell-based; conditions: mean ± SEM
Experimental: Cells were seeded in 96-well flat-bottom culture plates at a concentration of 1000 cells per well. […] After 72 h, the medium was removed and replaced with new medium. The cell viability reagent WST-1 (10 µL, Roche Diagnostics, Indianapolis, IN, USA) was added to each well. After an hour, the absorbance was measured at 450 nm using a versatile microplate reader (Bio-strategy, Campbellfield, VIC, Australia). Three separate experiments were performed, each with n = 3 replicates. GraphPad prism 10 was used to calculate apparent IC50 values using the nonlinear regression model Y = Bottom + (Top-Bottom)/(1 + 10^(X-LogIC50)) where Top and bottom are plateaus in the y-axis (% survival). The R^2 value of the curve fits ranged from 0.8972 to 0.9794.

| SMILES | number of downregulated differentially expressed proteins (MDA−MB−231 cells) | number of upregulated differentially expressed proteins (MDA−MB−231 cells) | detected up and down differentially regulated proteins (HT29 cells) | IC50 (MCF10A) [µM] | number of downregulated differentially expressed proteins (HT29 cells) | number of upregulated differentially expressed proteins (HT29 cells) | DEPs exhibited by the treatment (UpSet plot) (MDA−MB−231 cells) | DEPs exhibited by the treatment (UpSet plot) (HT29 cells) |
| --- | --- | --- | --- | --- | --- | --- | --- | --- |
| Cc1cc2cccnc2c2ncccc12.N[C@H]1CCCC[C@@H]1N.O=[N+]([O-])[O-].O=[N+]([O-])[O-].[OH][Pt+2][OH] [Pt^IV5MESS(OH)2, [Pt(5-methyl-1,10-phenanthroline)(1S,2S-diaminocyclohexane)(dihydroxy)](NO3)2] | 33 | 38 | 3 | 12.2 ± 1.48 |  |  |  |  |
| N[C@H]1CCCC[C@@H]1N.O=[N+]([O-])[O-].O=[N+]([O-])[O-].[Pt+2].c1cnc2c(c1)ccc1cccnc12 [[Pt(1,10-phenanthroline)(1S,2S-diaminocyclohexane)](NO3)2] | 7 | 14 |  | 3.49 ± 1.39 | 10 | 9 |  |  |
| Cc1c(C)c2cccnc2c2ncccc12.N[C@H]1CCCC[C@@H]1N.O=[N+]([O-])[O-].O=[N+]([O-])[O-].[OH][Pt+2][OH] [Pt^IV56MESS(OH)2, [Pt(5,6-dimethyl-1,10-phenanthroline)(1S,2S-diaminocyclohexane)(dihydroxy)](NO3)2] | 3 | 8 | 3 | 4.91 ± 1.45 |  |  |  |  |
| Cc1c(C)c2cccnc2c2ncccc12.N[C@H]1CCCC[C@@H]1N.O=[N+]([O-])[O-].O=[N+]([O-])[O-].[Pt+2] [Pt^II56MESS, [Pt(5,6-dimethyl-1,10-phenanthroline)(1S,2S-diaminocyclohexane)](NO3)2] | 183 | 132 |  | 0.41 | 228 | 200 | 165 | 225 |
| N[C@H]1CCCC[C@@H]1N.O=[N+]([O-])[O-].O=[N+]([O-])[O-].[OH-].[OH-].[Pt+4].c1cnc2c(c1)ccc1cccnc12 [[Pt(1,10-phenanthroline)(1S,2S-diaminocyclohexane)(dihydroxy)](NO3)2] | 5 | 9 | no detected differentials | 20.5 ± 1.32 |  |  |  |  |
| N.N.[Cl][Pt][Cl] [Cisplatin, cisplatin] |  |  |  | 4.71 ± 1.47 |  |  |  |  |
| Cc1cc2cccnc2c2ncccc12.N[C@H]1CCCC[C@@H]1N.O=[N+]([O-])[O-].O=[N+]([O-])[O-].[Pt+2] [Pt^II5MESS, [Pt(5-methyl-1,10-phenanthroline)(1S,2S-diaminocyclohexane)](NO3)2] | 75 | 91 |  | 1.18 ± 1.75 | 118 | 110 | 22 | 34 |
